Consider 35 compounds from paper PMC6017705, “Discovery of N-(Naphtho[1,2-b]Furan-5-Yl) Benzenesulfonamides as Novel Selective Inhibitors of Triple-Negative Breast Cancer (TNBC)” (Molecules : A Journal of Synthetic Chemistry and Natural …, 2018).

Holding throughout (type): cell-based, human
One assay has as its system MDA-MB-231. Description: Cell viability assay (CCK-8), MDA-MB-231. The following applies: for inhibition at 5 µg/mL / IC50: Homo sapiens; for inhibition at 5 µg/mL: MDA-MB-231; for IC50: MDA-MB-231, 72 h, TNBC cell line, CCK-8, 72 h, 0.156 to 40 μM. The protocol:
(§1) Four human TNBC cell lines (MDA-MB-231, MDA-MB-453, SUM-159, and BT-20), a non-TNBC breast cancer cell line (MCF-7) and a normal mammary epithelial cell line (MCF-10A) were cultured with DMEM (phenol free) supplemented with 2.5% CS-FBS and 1% L-Glu. 1.2 × 10^3 of cells were seeded into 384-well microplates and maintained for 24 h in an incubator at 37 °C in a 5% CO2, saturated humidified atmosphere. […] […] Then CCK-8 solution was added into cells and incubated for another 4 h. Absorbance was measured with a Microplate Reader at 450/600 nm. The IC50 values of the compounds on TNBC cell lines were derived using GraphPad Prism 5.0 (GraphPad Software, Inc., La Jolla, CA, USA).

In the next assay the test system is SUM-159. Description: Cell viability assay (CCK-8), SUM-159. The settings on record: for inhibition at 5 µg/mL / IC50: Homo sapiens; for inhibition at 5 µg/mL: SUM159; for IC50: SUM159, 72 h, TNBC cell line, CCK-8, 72 h, 0.156 to 40 μM. The protocol: as §1
The next assay concerns MCF-7. As to the kind of experiment: Cell viability assay (CCK-8), MCF-7. The following applies: Homo sapiens; for inhibition at 5 µg/mL: MCF7. As for the experimental part: as §1

By inhibition is commonly meant the change of the read-out against control, counted positive when it falls. Take `CCOC(=O)c1c(C)oc2c1cc(NS(=O)(=O)c1ccc(C)cc1)c1ccccc12` [Compound 3-36]: the inhibition at 5 µg/mL is 16.8% with MDA-MB-231, -0.123% with SUM-159 and -4.38% in the assay on MCF-7.

For `COC(=O)c1c(C)oc2c1cc(NS(=O)(=O)c1ccccc1)c1ccccc12` [Compound 3-30], the inhibition at 5 µg/mL in the assay on MDA-MB-231 was 50.9%; in the assay on SUM-159 it was 0.862%; with MCF-7, 29.3%.

Regarding `CCOc1ccc(S(=O)(=O)Nc2cc3c(C(=O)OCCOC)c(C)oc3c3ccccc23)cc1` [Compound 3-23], the inhibition at 5 µg/mL came out at 62% with MDA-MB-231, 49.1% with SUM-159 and 14.7% in the assay on MCF-7.

Regarding `COC(=O)c1c(C)oc2c1cc(NS(=O)(=O)c1cc(C)c(C)cc1C)c1ccccc12` [Compound 3-24], the inhibition at 5 µg/mL with MDA-MB-231 was determined as 46.6%; in the assay with SUM-159 it was 0.233%; in the assay with MCF-7 it was 34.9%.

Regarding `CCOC(=O)c1c(C)oc2c1cc(NS(=O)(=O)c1ccc3ccccc3c1)c1ccccc12` [Compound 3-6], the inhibition at 5 µg/mL with MDA-MB-231 is 43.4%; in the assay on SUM-159, 0.292%; in the assay with MCF-7, 7.72%.

With `COC(=O)c1c(C)oc2c1cc(NS(=O)(=O)c1ccc(F)cc1)c1ccccc12` [Compound 3-10], the figures for the inhibition at 5 µg/mL in the assay on MDA-MB-231, in the assay on SUM-159 and with MCF-7 were 64.5%, 35.5% and 34.5%, respectively.

`CCOC(=O)c1c(C)oc2c1cc(NS(=O)(=O)c1ccc(C(C)C)cc1)c1ccccc12` [Compound 3-31]: the inhibition at 5 µg/mL in the assay on MDA-MB-231 was 32.1%; in the assay with SUM-159 it was -1.33%; in the assay on MCF-7 it was 2.95%.

Turning to `COC(=O)c1c(C)oc2c1cc(NS(=O)(=O)c1ccc(C)cc1C)c1ccccc12` [Compound 3-5], the inhibition at 5 µg/mL with MDA-MB-231 came out at 41.1%; with SUM-159, 0.757%; with MCF-7 it was 22%.

`Cc1oc2c(cc(NS(=O)(=O)c3ccc(Cl)cc3)c3ccccc32)c1C(=O)O` [Compound 3-1]: the inhibition at 5 µg/mL was 31.4% with MDA-MB-231, -0.754% with SUM-159 and -12.2% in the assay on MCF-7.

Turning to `CCCc1oc2c(cc(NS(=O)(=O)c3ccc(C(=O)O)cc3)c3ccccc32)c1C(=O)OCC` [Compound 3-40], the inhibition at 5 µg/mL in the assay on MDA-MB-231 was 12.5%; in the assay on SUM-159 it was 0%; in the assay on MCF-7, 2.52%.

Regarding `CCCCCOC(=O)c1c(C)oc2c1cc(NS(=O)(=O)c1ccc(OC)cc1)c1ccccc12` [Compound 3-25], the values for the inhibition at 5 µg/mL in the assay with MDA-MB-231, in the assay with SUM-159 and with MCF-7 were 39.5%, 61.9% and 48.3%, respectively.

For `CCOC(=O)c1c(C)oc2c1cc(NS(=O)(=O)c1ccc(CC)cc1)c1ccccc12` [Compound 3-11], the results for the inhibition at 5 µg/mL in the assay with MDA-MB-231, in the assay with SUM-159 and in the assay with MCF-7 were 41.1%, 0.175% and 13%, respectively.

As to `COC(=O)c1c(C)oc2c1cc(NS(=O)(=O)c1ccc(C)cc1)c1ccccc12` [Compound 3-14], the inhibition at 5 µg/mL in the assay with MDA-MB-231 worked out at 62.8%; in the assay on SUM-159, 48.2%; in the assay on MCF-7, 10.2%.

For the compound `Cc1oc2c(cc(NS(=O)(=O)c3ccccc3)c3ccccc32)c1C(=O)OCc1ccccc1` [Compound 3-26], the inhibition at 5 µg/mL turned out to be 51% in the assay with MDA-MB-231, 1.58% in the assay on SUM-159 and 25.6% with MCF-7.

For `COC(=O)c1c(C)oc2c1cc(NS(=O)(=O)c1cc(C)ccc1C)c1ccccc12` [Compound 3-15], the inhibition at 5 µg/mL with MDA-MB-231 is 45.6%; with SUM-159, 0.037%; in the assay on MCF-7, 18.5%.

As to `COC(=O)c1c(C)oc2c1cc(NS(=O)(=O)c1cccc3cccnc13)c1ccccc12` [Compound 3-27], the inhibition at 5 µg/mL with MDA-MB-231 came to 48.2%; with SUM-159 it was 10.2%; in the assay with MCF-7, 35.5%.

Take `CCOC(=O)c1c(C)oc2c1cc(NS(=O)(=O)c1ccc(C)cc1C)c1ccccc12` [Compound 3-16]: the inhibition at 5 µg/mL with MDA-MB-231 worked out at 48.2%; in the assay with SUM-159 it was 0.732%; in the assay with MCF-7, 43.4%.

As to `Cc1cc(F)ccc1S(=O)(=O)Nc1cc2c(C(=O)O)c(C)oc2c2ccccc12` [Compound 3-19], the inhibition at 5 µg/mL with MDA-MB-231 stood at 19.3%; with SUM-159, 0.38%; in the assay with MCF-7, 16.3%.

Turning to `CCc1ccc(S(=O)(=O)Nc2cc3c(C(=O)O)c(C)oc3c3ccccc23)cc1` [Compound 3-8], the inhibition at 5 µg/mL in the assay with MDA-MB-231 was -1.13%; in the assay with SUM-159 it was 0.221%; in the assay on MCF-7 it was -6.71%.

On to `COC(=O)c1c(C)oc2c1cc(NS(=O)(=O)c1c(C)cc(C)cc1C)c1ccccc12` [Compound 3-38], for which the inhibition at 5 µg/mL worked out at 50.6% in the assay with MDA-MB-231, 1.35% in the assay on SUM-159 and 14.8% in the assay with MCF-7.

Broadly, the IC50 is the concentration that inhibits the measured activity by half. Higher therefore signals weaker potency. Regarding `COC(=O)c1c(C)oc2c1cc(NS(=O)(=O)c1ccc(F)cc1C)c1ccccc12` [Compound 3-18], the figures for the inhibition at 5 µg/mL in the assay with MDA-MB-231, in the assay on SUM-159 and in the assay on MCF-7 were 59.4%, 51.4% and 33.2%, respectively. Moreover, the figures for the IC50 in the assay on MDA-MB-231 and in the assay on SUM-159 were 5.2 µM and 24.2 µM, respectively.

Take `CCOC(=O)c1c(C)oc2c1cc(NS(=O)(=O)c1cc(C)c(C)cc1C)c1ccccc12` [Compound 3-2]: the inhibition at 5 µg/mL in the assay with MDA-MB-231 was 24.3%; in the assay with SUM-159 it was -0.884%; with MCF-7, 17.7%.

For the compound `COC(=O)c1c(C)oc2c1cc(NS(=O)(=O)c1ccc3ccccc3c1)c1ccccc12` [Compound 3-7], the inhibition at 5 µg/mL in the assay on MDA-MB-231 was 0.431%; with SUM-159 it was 0.085%; in the assay with MCF-7, -4.73%.

In the case of `Cc1oc2c(cc(NS(=O)(=O)c3ccc(C(C)C)cc3)c3ccccc32)c1C(=O)O` [Compound 3-32], the inhibition at 5 µg/mL with MDA-MB-231 is 24.7%; with SUM-159, -0.964%; with MCF-7, -7.57%.

As for `CCOC(=O)c1c(C)oc2c1cc(NS(=O)(=O)c1c(C)cc(C)cc1C)c1ccccc12` [Compound 3-35], the inhibition at 5 µg/mL in the assay on MDA-MB-231 is 33.9%; in the assay on SUM-159 it was 0.352%; in the assay with MCF-7, 24.5%.

Turning to `CCc1ccc(S(=O)(=O)Nc2cc3c(C(=O)OC)c(C)oc3c3ccccc23)cc1` [Compound 3-20], the inhibition at 5 µg/mL in the assay on MDA-MB-231 is 53.5%; in the assay with SUM-159, 65.4%; in the assay with MCF-7, 31.2%. The IC50 worked out at 10 µM in the assay on MDA-MB-231 and 17 µM with SUM-159.

For `COC(=O)c1c(C)oc2c1cc(NS(=O)(=O)c1ccc(C(C)C)cc1)c1ccccc12` [Compound 3-4], the figures for the inhibition at 5 µg/mL with MDA-MB-231, in the assay on SUM-159 and in the assay on MCF-7 were 37.8%, -0.319% and 14.2%, respectively.

`Cc1oc2c(cc(NS(=O)(=O)c3ccc(F)cc3)c3ccccc32)c1C(=O)OC(C)C` [Compound 3-39]: the inhibition at 5 µg/mL in the assay on MDA-MB-231 was 42.3%; in the assay with SUM-159 it was -0.193%; with MCF-7, 4.95%.

For `COC(=O)c1c(C)oc2c1cc(NS(=O)(=O)c1ccc(C(=O)O)cc1)c1ccccc12` [Compound 3-34], the inhibition at 5 µg/mL with MDA-MB-231 was 11%; in the assay on SUM-159, -0.042%; in the assay on MCF-7 it was 2.85%.

Regarding `COC(=O)c1c(C)oc2c1cc(NS(=O)(=O)c1ccc(Br)cc1)c1ccccc12` [Compound 3-29], the inhibition at 5 µg/mL was 45% in the assay with MDA-MB-231, 1.32% in the assay on SUM-159 and 14.5% in the assay on MCF-7.

Regarding `CCCc1oc2c(cc(NS(=O)(=O)c3ccc(OC)cc3)c3ccccc32)c1C(=O)OCC` [Compound 3-28], the inhibition at 5 µg/mL in the assay with MDA-MB-231 came to 61.9%; in the assay with SUM-159, 46%; in the assay with MCF-7 it was 33.4%. The IC50 was > 40 µM in the assay on MDA-MB-231 and 14.4 µM in the assay on SUM-159.

In the case of `COC(=O)c1c(C)oc2c1cc(NS(=O)(=O)c1ccc(Cl)cc1)c1ccccc12` [Compound 3-33], the inhibition at 5 µg/mL in the assay with MDA-MB-231 was 32.8%; in the assay on SUM-159 it was -0.507%; in the assay on MCF-7, 2.82%.

Consider `CCOC(=O)c1c(-c2ccccc2)oc2c1cc(NS(=O)(=O)c1ccc(CC)cc1)c1ccccc12` [Compound 3-22], for which the inhibition at 5 µg/mL in the assay with MDA-MB-231 was 53.6%; in the assay on SUM-159, -0.556%; in the assay with MCF-7, 2.24%.

Turning to `CCOC(=O)c1c(C)oc2c1cc(NS(=O)(=O)c1ccc(C(=O)O)cc1)c1ccccc12` [Compound 3-13], the inhibition at 5 µg/mL is 19.6% in the assay with MDA-MB-231, -0.635% with SUM-159 and 5.14% in the assay with MCF-7.

With `Cc1sc(N)c2c(=O)oc3c4ccccc4ccc3c12` [Compound B09], in the assay on MDA-MB-231, the “growth-inhibitory effect on MDA-MB-231 (in words)” value is “almost no growth-inhibitory effect” and the IC50 is ~20 µM. In addition, in the assay on SUM-159, the “growth-inhibitory effect on SUM-159 (in words)” value is “almost no growth-inhibitory effect” and the IC50 was > 40 µM. In addition, the midpoint of inhibition with MCF-7 (MCF7, 72 h, non-TNBC breast cancer cell line, CCK-8, 72 h), the IC50, lay at 1450 nM.
